# Several values for one entry are separate records, joined by “and”; a condition that tells them apart may be missing. Equal entries are not always repeated. Structures can show the parent of a compound that is named as a salt. Where two headings read alike, the source gives them in different places.
# Key:
# B/Hong Kong/5/72 BVLV012 = test: Plaque reduction assay (PRA) in MDCK cells; assay type: cell-based, influenza B; conditions: Influenza B virus, MDCK, read-out: EC50 PRA B/HongK
# Method: (§1) Madin Darby Canine Kidney (MDCK) cells are seeded into six well tissue culture plates and grown to confluency via standard methods. Influenza viruses are diluted in a minimal volume of phosphate buffered saline supplemented with 0.2% bovine serum albumin to yield an estimated titre of 50–100 plaque forming units (pfu) per well. After adsorption to the MDCK cells for one hour at 37° C. in a 5% CO2 atmosphere the viral inocula is aspirated and replaced with viral growth media (minimal Eagle's media supplemented with BSA, trypsin and insulin/transferrin/selenium at optimal concentrations) containing sufficient agar or agarose (generally 1–2%) to cause the media to gel at room temperature and at 37° C. in a 5% CO2 atmosphere until plaques develop (generally 2–4 days). Plaques can be visualised with a suitable stain (e.g. 0.4% crystal violet in formal saline) before counting.
# [1] = system: A/Victoria/3/75 BVLV017 (H3N2); test: Plaque reduction assay (PRA) in MDCK cells; assay type: cell-based; conditions: Influenza A virus
# [2] = system: A/New Caledonia/20/99 BVLV008 (H1N1); test: Plaque reduction assay (PRA) in MDCK cells; assay type: cell-based; conditions: Influenza A virus
# [3] = system: B/Yamanashi/166/98 BVLV007; test: Plaque reduction assay (PRA) in MDCK cells; assay type: cell-based; conditions: Influenza B virus, MDCK
# Influenza A/Sydney/5/97 = test: Cytopathic effect (CPE) assay, inhibition of influenza virus replication in MDCK cells; assay type: cell-based; conditions: up to 72 hours, MTT
# Influenza B/Harbin/7/95 = test: as above; assay type: cell-based; conditions: up to 72 hours, MTT
# [4] = system: A/Panama/2007/99 BVLV008 (H3N2); test: Plaque reduction assay (PRA) in MDCK cells; assay type: cell-based; conditions: Influenza A virus
# A/WSN/33 BVLV09 (H1N1) = test: Plaque reduction assay (PRA) in MDCK cells; assay type: cell-based, influenza A H1N1; conditions: Influenza A virus, MDCK, A/WSN/33 (H1N1)
# Method: as §1
# [5] = Rat lung retention assay (intra-tracheal dosing); assay type: in vivo; conditions: for PCT AU01/01128 compound 3 ng/g: individual animal
# Method: Rodents are anaesthetised and dosed with compound of interest by the intra-tracheal route at a dose volume of 0.8 ml/kg. The rodent is then held in the vertical position until full recovery is achieved. […] Any analytical method suitable for detection of this type of compound may be used. The time at which levels of compound fall below the sensitivity of the analytical techniques identified will determine the residency time of the compound in lung tissue.
# Please note that all experiments included a co-dosed internal standard, namely compound 3 of International Patent Publication No. WO 02/20514, to permit comparison. The data are expressed as a ratio with respect to this compound, the structure of which is shown below.
# [6] = system: A/Sydney/5/97 BVLV015 (H3N2); test: Plaque reduction assay (PRA) in MDCK cells; assay type: cell-based, influenza A H3N2; conditions: Influenza A virus, MDCK, A/Sydney/5/97 (H3N2), read-out: EC50 PRA A/Syd
# Method: as §1
# [7] = H1N1, MDCK, read-out: EC50 PRA A/New, plaque reduction, A/New Caledonia/20/99 (H1N1)
# [8] = read-out: EC50 PRA B/Yam, plaque reduction, B/Yamanashi/166/98
# [9] = rat, in vivo, 0.1 mg/kg, Mean (cmpd) ng/g
# [10] = rat lung, co-dosed internal standard, 48 hrs
compound,measurement,setting,value
"NC12CC3CC(CC(C3)C1)C2 [Amantadine, reference compound]",EC50,B/Hong Kong/5/72 BVLV012,> 10000 ng/mL
same,EC50,"[1]; H3N2, MDCK, read-out: EC50 PRA A/Vic, plaque reduction, A/Victoria/3/75 (H3N2)",220 ng/mL
same,EC50,[2]; [7],11 ng/mL
same,EC50,[3]; [8],2060 ng/mL
"CC(=O)N[C@H]1[C@H]([C@H](OC(=O)NCCCCCCCCCCNC(=O)O[C@@H]([C@@H]2OC(C(=O)O)=C[C@H](NC(=N)N)[C@H]2NC(C)=O)[C@H](O)CO)[C@H](O)CO)OC(C(=O)O)=C[C@@H]1NC(=N)N.O=C(O)C(F)(F)F.O=C(O)C(F)(F)F [Example 1, (2R,3R,4S)-3-(acetylamino)-2-{(1R,18R,19R)-18-((2R,3R,4S)-3-(acetylamino)-4-{[amino(imino)methyl]amino}-6-carboxy-3,4-dihydro-2H-pyran-2-yl)-1-[(1R)-1,2-dihydroxyethyl]-19,20-dihydroxy-3,16-dioxo-2,17-dioxa-4,15-diazaicos-1-yl}-4-{[amino(imino)methyl]amino}-3,4-dihydro-2H-pyran-6-carboxylic acid bis(trifluoroacetic acid salt)]",ID50 A/Sydney/5/97,Influenza A/Sydney/5/97,0.2 ng/mL
same,ID50 B/Harbin/7/95,Influenza B/Harbin/7/95,0.1 ng/mL
"CC(=O)N[C@H]1[C@H]([C@H](OC(=O)NCCCCCCCCCCCCCNC(=O)O[C@@H]([C@@H]2OC(C(=O)O)=C[C@H](NC(=N)N)[C@H]2NC(C)=O)[C@H](O)CO)[C@H](O)CO)OC(C(=O)O)=C[C@@H]1NC(=N)N [Example 4, (2R,3R,4S)-3-(acetylamino)-2-{(1R,21R,22R)-21-((2R,3R,4S)-3-(acetylamino)-4-{[amino(imino)methyl]amino}-6-carboxy-3,4-dihydro-2H-pyran-2-yl)-1-[(1R)-1,2-dihydroxyethyl]-22,23-dihydroxy-3,19-dioxo-2,20-dioxa-4,18-diazatricos-1-yl}-4-{[amino(imino)methyl]amino}-3,4-dihydro-2H-pyran-6-carboxylic acid bis(trifluoroacetic acid salt)]",ID50 A/Sydney/5/97,Influenza A/Sydney/5/97,0.1 ng/mL
same,EC50,B/Hong Kong/5/72 BVLV012,0.06 ng/mL
same,EC50,[2]; [7],0.043 ng/mL
same,ID50 B/Harbin/7/95,Influenza B/Harbin/7/95,0.1 ng/mL
same,EC50,"[4]; H3N2, MDCK, read-out: EC50 PRA A/Pan, plaque reduction, A/Panama/2007/99 (H3N2)",< 1e-05 ng/mL
same,EC50,A/WSN/33 BVLV09 (H1N1),< 0.0001 ng/mL
same,Ratio Mean (lung) (cmpd)/PCT AU01/01128 compound 3,"[5]; rat, in vivo, 0.1 mg/kg, 48 h",1.70
same,Ratio Mean (lung) (cmpd)/PCT AU01/01128 compound 3,"[5]; rat, in vivo, 0.1 mg/kg, 168 h",1.48
same,concentration at 48 h,[5]; [9],1770 ng/g
same,concentration at 168 h,[5]; [9],756 ng/g
same,EC50,[6],< 0.0001 ng/mL
same,EC50,[3]; [8],< 0.0001 ng/mL
CCOC(=O)C1=C[C@@H](OC(CC)CC)[C@H](NC(C)=O)[C@@H](N)C1 [Oseltamivir],EC50,B/Hong Kong/5/72 BVLV012,32 ng/mL
same,EC50,"[1]; MDCK, plaque reduction, A/Victoria/3/75 (H3N2), read-out: EC50 PRA A/Vic",0.11 ng/mL
same,EC50,"[2]; MDCK, plaque reduction, A/New Caledonia/20/99 (H1N1), read-out: EC50 PRA A/New",0.23 ng/mL
same,EC50,"[4]; MDCK, plaque reduction, A/Panama/2007/99 (H3N2), read-out: EC50 PRA A/Pan",0.3 ng/mL
same,EC50,"[3]; plaque reduction, B/Yamanashi/166/98, read-out: EC50 PRA B/Yam",0.7 ng/mL
CC(=O)N[C@H]1[C@H]([C@H](OC(=O)NCCCCCCNC(=O)CN(CCN(CC(=O)NCCCCCCNC(=O)O[C@H](C(O)CO)[C@@H]2OC(C(=O)O)=C[C@H](NC(=N)N)[C@H]2NC(C)=O)CC(=O)NCCCCCCNC(=O)O[C@H](C(O)CO)[C@@H]2OC(C(=O)O)=C[C@H](NC(=N)N)[C@H]2NC(C)=O)CC(=O)NCCCCCCNC(=O)O[C@H](C(O)CO)[C@@H]2OC(C(=O)O)=C[C@H](NC(=N)N)[C@H]2NC(C)=O)[C@H](O)CO)OC(C(=O)O)=C[C@@H]1NC(=N)N (stereo partly drawn) [PCT AU01/01128 compound 3],Mean (PCT AU01/01128 compound 3),[5]; [10],1478 ng/g and 1368 ng/g and 1413 ng/g
same,PCT AU01/01128 compound 3 ng/g,[5]; [10],1098 ng/g and 1352 ng/g and 681 ng/g and 784 ng/g and 2046 ng/g and 1605 ng/g and 698 ng/g and 1901 ng/g and 1507 ng/g and 655 ng/g and 1840 ng/g and 1744 ng/g
same,PCT AU01/01128 compound 3 ng/g,"[5]; rat lung, co-dosed internal standard, 168 hrs",580 ng/g and 829 ng/g and 636 ng/g and 524 ng/g and 367 ng/g and 632 ng/g and 242 ng/g (2×) and 216 ng/g and 815 ng/g and 925 ng/g and 512 ng/g
same,concentration at 48 h,"[5]; rat, in vivo, rat lung, co-dosed internal standard, 48 hrs, read-out: Mean (PCT AU01/01128 compound 3)",1040 ng/g

# From patent US7230028B2, “Dimeric compounds and their use as anti-viral agents” (priority 2001, dated 2007)
